The values below come from paper PMC9344964 (Journal of Enzyme Inhibition and Medicinal Chemistry, 2022).

The nature of one series: MTT cytotoxicity assay. It is filed as cell-based. The conditions noted are these: African green monkey, Vero E6 cells, read-out: cytotoxic concentration 50 (CC50). The procedure: It was performed to calculate the newly synthesised candidates’ minimum concentrations that cause 50% toxicity to the cells (CC50). First, the newly synthesised derivatives were dissolved in ddH2O with 10% DMSO and then diluted with Dulbecco's Modified Eagle's Medium (DMEM) to the desired concentrations. The MTT assay method was performed with minor changes using VERO-E6 cells (ready for the virus propagation) to be applied in other experiments. The complete methodology was elucidated in the Supplementary Data (SI2).
(§1) SI 2. MTT cytotoxicity assay.
(§2) The VERO-E6 cells were kept in 96 well-plates at 37°C in 5% CO2 for 24 h to be cultivated. The tested compounds were diluted with DMEM in HA plate in triplicates as mentioned before and then poured onto the prepared cells after washing twice by sterile 1x phosphate buffer saline (PBS). 24 h later, the cell monolayers were washed three times with sterile 1x PBS after removal of the supernatant followed by the addition of the MTT solution into each individual well (20 µl of 5 mg/ml stock solution) which was kept at 37°C for 4 h. The formed formazan crystals were dissolved using an acidified isopropanol (200 µl) and the absorbance of their solutions were recorded through a multi-well plate reader (λmax = 540 nm) against a reference wavelength (λmax= 620 nm). Finally, the cytotoxicity % of the tested compounds compared to the control cells (untreated cells) was calculated as follow:
(§3) % Cytotoxicity = (the absorbance of untreated cells − absorbance of treated cells) X 100 […]
(§4) SI 3. Inhibitory concentration 50 (IC50) determination.
(§5) The Vero-E6 cells (2.4×104) were kept overnight at 37°C in 5% CO2 inside 96-well tissue culture plates. 1x PBS solution was used to wash the cell monolayers for only one time which were then treated with different serial dilutions of the examined compounds together with a fixed dilution from the virus (hCoV-19/Egypt/NRC-03/2020 (Accession Number on GSAID: EPI_ISL_430820)) following TCID50 test and kept at RT for 1 h before starting incubation. Also, the cell monolayers were subjected to DMEM (100 μl) with different concentrations of the test samples and virus and left at 37°C for 72 h in a 5% CO2. Then, 4% paraformaldehyde (100 μl) was used for cell fixation (2 h) followed by the staining step with 0.1% crystal violet in distilled H2O (50 μl) at RT for 15 min. Absolute CH3OH (100 μl) was added to dissolve the crystal violet dye per well to measure the optical density of the produced color using Anthos Zenyth 200rt plate reader at 570 nm.1 The IC50 value for each tested compound which is corresponding to its minimum concentration required to reduce the virus infectivity by 50% in comparison to the virus control was calculated.
A general note: Tetrazolium dyes change colour on reduction, which living cells bring about.

A further series addresses SARS-CoV-2 Mpro (Severe acute respiratory syndrome coronavirus 2, UniProt P0DTD1). Nature of the series: SARS-CoV-2 Mpro assay (3CL Protease Assay Kit). It is filed as biochemical. The text has this: The Mpro activity was investigated using the 3CL Protease Assay Kit. The applied protocol and methodology were depicted in the Supplementary Data (SI4). Herein, the present assay was established to assess the newly synthesised candidates (3a–g) inhibitory effects on the SARS-CoV-2 Mpro enzyme as a recommended mechanism of action.
SI 4. Methodology and protocol of 3CL Protease (SARS-CoV-2) assay.
The 3CL Protease Assay Kit is designed to measure 3CL Protease activity for screening and profiling applications, in a homogeneous assay with no time-consuming washing steps. The kit comes in a convenient 96-well format, with purified 3CL Protease, fluorogenic substrate, and 3CL Protease assay buffer for 100 enzyme reactions. 3CL inhibitor GC376 is also included as a positive control.
Add 0.5 M DTT to 3CL Protease Assay Buffer so final DTT concentration is 1 mM. For example, add 10 μl of 0.5 M DTT to 5 ml assay buffer. (DTT should be added just before use. Prepare only enough DTT-containing buffer as required for the assay. Store the remaining assay buffer at - […]
2) Thaw 3CL Protease on ice. Upon first thaw, briefly spin tube containing enzyme to recover the full content of the tube. Aliquot 3CL Protease into single use aliquots. Store remaining undiluted enzyme in aliquots at -80°C. Note: 3CL Protease enzyme is sensitive to freeze/thaw cycles.
3) Dilute 3CL Protease in Assay buffer (with 1 mM DTT) at 3-5 ng/μl (90-150 ng per reaction).
4) Add 30 μl diluted 3CL Protease enzyme solution to wells designated as “Positive Control”, “Inhibitor Control” and “Test Sample”. Add 30 μl Assay buffer (with 1 mM DTT) to the “Blank” wells.
Component Positive Test Sample Inhibitor Blank
Assay Buffer (with DTT) − − − 30 μl […]
Inhibitor Buffer (no inhibitor) 10 μl − − 10 μl […]
5) Dilute 50 μg GC376 in 200 μl water to obtain a 500 μM solution. Aliquot and store remaining solution in aliquots at -80°C. Add 10 μl GC376 (500 μM) to the wells labeled “Inhibitor Control”.
6) Prepare the inhibitor solution.
The final concentration of DMSO in the assay should not exceed 1%. If the inhibitor compound is dissolved in DMSO, make a 100-fold higher concentration of the compound than the highest […]
concentration you want to test in DMSO. Then make a 20-fold dilution in 1X assay buffer (at this step the compound concentration is 5-fold higher than the final concentration).
If the inhibitor compound is dissolved in water, make a solution of the compound 5-fold higher than the final concentration in 3CL Protease assay buffer (with 1 mM DTT). For example, diluting 50 μg GC376 in 200 μl water (step 5) creates a 500 μM solution. Adding 10 ul to the assay (final volume 50 μl) results in a 100 μM final concentration.
7) Add 10 μl inhibitor to each well designated “Test Sample”. Add 10 μl 1X assay buffer or 5% DMSO (depending on which inhibitor solution is used) to “Blank” and “Positive Control” wells.
8) Preincubate enzyme with the inhibitor for 30 min at room temperature with slow shaking.
9) Dilute 5 mM 3CL Protease substrate 1:20 in assay buffer with DTT, to make a 250 μM solution.
Dilute only enough as is required for the assay.
10) Start reaction by adding 10 μl of the substrate solution to each well (Final concentration of the 3CL Protease substrate in a 50 μl reaction is 50 μM).
11) Incubate at room temperature for overnight. Seal the plate with the plate sealer. Measure the fluorescence intensity in a microtiter plate-reading fluorimeter capable of excitation at a wavelength 360 nm and detection of emission at a wavelength 460 nm. The fluorescence intensity can also be measured kinetically. “Blank” value is subtracted from all other values.
SI 5. Molecular dynamics (MD) simulations.
The MD simulations were carried out using Desmond simulation package of Schrödinger LLC.2 The NPT ensemble with the temperature 300 K and a pressure 1 bar was applied in all runs. The simulation length was 100 ns with a relaxation time 1 ps for the ligands. […]

The subject of series [1] is SARS-CoV-2 [hCoV-19/Egypt/NRC-03/2020]. Nature of the series: SARS-CoV-2 inhibitory assay (IC50 determination, crystal violet) in Vero E6 cells. It is filed as cell-based. On the procedure:
The IC50 for each examined compound (3a–g) which is equivalent to the minimum concentration to inhibit the virus infectivity by 50% compared to the virus control was calculated. The full methodology was depicted in the Supplementary Data (SI3).
as §1, §2, §3, §4, §5

For the next series, the system named is SARS-CoV-2. On the set-up: method as in PMID 33352056. The settings on record: in vitro assessment; read-out: EC50 against SARS-CoV-2; cited from earlier work.
On the set-up of series [2]: method as in PMID 34641339. The conditions noted are these: single-dose administration; cited from earlier work.
Setting [3] is: values used for multiple linear regression, read-out: IC50 (Table 4, regression model; SARS-CoV-2 Mpro values) (converted).
Setting [4] is: Severe acute respiratory syndrome coronavirus 2, Vero C1008, read-out: IC50 (anti-SARS-CoV-2 activity).
Setting [5] is: Severe acute respiratory syndrome coronavirus 2, Vero C1008, Vero E6 cells, hCoV-19/Egypt/NRC-03/2020, read-out: IC50 (anti-SARS-CoV-2 activity).
Setting [6] is: 3CL Protease Assay Kit, read-out: SARS-CoV-2 Mpro IC50 (converted).

Converted amounts (≈) assume the structure as drawn. Read-outs that look alike come from different tables or passages of the source.

Turning to `O=C(Nc1ncc([N+](=O)[O-])s1)[C@@H]1CCCN1C(=O)OCc1ccccc1` [Compound 3f, Benzyl (S)-2-((5-nitrothiazol-2-yl)carbamoyl)pyrrolidine-1-carboxylate], the CC50 at 24 h in “MTT cytotoxicity assay” came to 2800 µg/mL (≈ 7.44 mM). For the same compound, the IC50 (commonly the midpoint of a concentration-inhibition curve) at SARS-CoV-2 Mpro (setting [3]) was 59.4 µM; in series [1] (setting [4]) it was 3330 µM; in series [1] (setting [5]), 1250 µg/mL.

Regarding `CC(C)[C@H](NC(=O)OCc1ccccc1)C(=O)Nc1ncc([N+](=O)[O-])s1` [Compound 3d, Benzyl (S)-(3-methyl-1-((5-nitrothiazol-2-yl)amino)-1-oxobutan-2-yl)carbamate], the CC50 at 24 h in the series “MTT cytotoxicity assay” was determined as 1200 µg/mL (≈ 3.18 mM). For the same compound, the results for the IC50 (on SARS-CoV-2 Mpro (setting [3]); in series [1] (setting [4])) were 235 µM and above 1200 µg/mL, respectively.

In the case of `O=C(N[C@@H](Cc1c[nH]c2ccccc12)C(=O)Nc1ncc([N+](=O)[O-])s1)OCc1ccccc1` [Compound 3g, Benzyl (S)-(3-(1H-indol-3-yl)-1-((5-nitrothiazol-2-yl)amino)-1-oxopropan-2-yl)carbamate], the CC50 at 24 h in the series “MTT cytotoxicity assay” was determined as 1630 µg/mL (≈ 3.49 mM). Also, the IC50 at SARS-CoV-2 Mpro (setting [3]) was 110 µM; in series [1] (setting [4]), above 1630 µg/mL.

On to `O=C(N[C@@H](Cc1ccccc1)C(=O)Nc1ncc([N+](=O)[O-])s1)OCc1ccccc1` [Compound 3e, Benzyl (S)-(1-((5-nitrothiazol-2-yl)amino)-1-oxo-3-phenylpropan-2-yl)carbamate], for which the CC50 at 24 h in the series “MTT cytotoxicity assay” came out at 2040 µg/mL (≈ 4.78 mM). The IC50 at SARS-CoV-2 Mpro (setting [3]) was 38.9 µM; in series [1] (setting [4]) it was 3010 µM; in series [1] (setting [5]), 1280 µg/mL.

In the case of `CC(=O)Oc1ccccc1C(=O)Nc1ncc([N+](=O)[O-])s1` [nitazoxanide], the EC50 (in general, the concentration needed to bring the measured effect to its halfway point) in the series with SARS-CoV-2 was 2.12 µM.

Consider `CC(C)C(=O)OC[C@H]1O[C@@H](n2ccc(NO)nc2=O)[C@H](O)[C@@H]1O` [molnupiravir], for which, in series [2], the “biological t1/2” value is recorded as 7 h and the “mean Cmax” value is recorded as 13.2 ng/mL.

With `C[C@H](NC(=O)OCc1ccccc1)C(=O)Nc1ncc([N+](=O)[O-])s1` [Compound 3c, Benzyl (S)-(1-((5-nitrothiazol-2-yl)amino)-1-oxopropan-2-yl)carbamate], the CC50 at 24 h in the series “MTT cytotoxicity assay” was determined as 2120 µg/mL (≈ 6.05 mM). Also, the IC50 at SARS-CoV-2 Mpro (setting [3]) is 34 µM; in series [1] (setting [4]) it was 1990 µM; in series [1] (setting [5]), 698 µg/mL. Also, the “selectivity index (SI = CC50/IC50)” value in series [1] (Vero E6 cells) turned out to be 3.

With `O=C(CNC(=O)OCc1ccccc1)Nc1ncc([N+](=O)[O-])s1` [Compound 3b, Benzyl (2-((5-nitrothiazol-2-yl)amino)-2-oxoethyl)carbamate], the CC50 at 24 h in “MTT cytotoxicity assay” came to 1850 µg/mL (≈ 5.51 mM). In addition, the IC50 was 15.2 µM on SARS-CoV-2 Mpro (setting [6]), 519 µM in series [1] (setting [4]) and 175 µg/mL in series [1] (setting [5]). Further, the “selectivity index (SI = CC50/IC50)” value in series [1] (Vero E6 cells) is given as 10.

On to `Cc1ccc(C(=O)Nc2ncc([N+](=O)[O-])s2)cc1` [Compound 3a, 4-Methyl-N-(5-nitrothiazol-2-yl)benzamide], for which the CC50 at 24 h in the series “MTT cytotoxicity assay” stood at 1470 µg/mL (≈ 5.57 mM). Further, the IC50 is 17.7 µM at SARS-CoV-2 Mpro (setting [6]), 5230 µM in series [1] (setting [4]) and 1380 µg/mL in series [1] (setting [5]).
